In ChEMBL document CHEMBL3045552, “In vivo screening of diarylimidazoles as anticonvulsant agents” (Med Chem Res, 2012):
Active and inactive are the calls of the source. The rule behind the calls is not given here.

Experiments:
Mus musculus [1] = assay: Anticonvulsant activity in Mus musculus CF1 albino (mouse) assessed as protection against maximal electroshock-induced seizures at 300 mg/kg, ip measured at 4 hr; assay type: functional, organism-based; parameters: dose 300 mg/kg
Mus musculus [2] = assay: Anticonvulsant activity in Mus musculus CF1 albino (mouse) assessed as protection against maximal electroshock-induced seizures at 100 mg/kg, ip measured at 0.5 hr; assay type: functional, organism-based; parameters: dose 100 mg/kg
Mus musculus [3] = assay: Anticonvulsant activity in Mus musculus CF1 albino (mouse) assessed as protection against maximal electroshock-induced seizures at 300 mg/kg, ip measured at 0.5 hr; assay type: functional, organism-based; parameters: dose 300 mg/kg
Mus musculus [4] = assay: Anticonvulsant activity in Mus musculus CF1 albino (mouse) assessed as protection against maximal electroshock-induced seizures at 30 mg/kg, ip measured at 4 hr; assay type: functional, organism-based; parameters: dose 30 mg/kg
Mus musculus [5] = assay: Neurotoxicity in Mus musculus CF1 albino (mouse) assessed as minimal motor impairment at 30 mg/kg, ip measured at 0.5 hr by rotorod test; assay type: toxicity, organism-based; parameters: dose 30 mg/kg, route intraperitoneal; settings: in vivo
Mus musculus [6] = assay: Anticonvulsant activity in Mus musculus CF1 albino (mouse) assessed as protection against subcutaneous metrazol-induced seizures at 100 mg/kg, ip measured at 4 hr; assay type: functional, organism-based; parameters: dose 100 mg/kg
Mus musculus [7] = assay: Anticonvulsant activity in Mus musculus CF1 albino (mouse) assessed as protection against subcutaneous metrazol-induced seizures at 30 mg/kg, ip measured at 4 hr; assay type: functional, organism-based; parameters: dose 30 mg/kg
Mus musculus [8] = assay: Neurotoxicity in Mus musculus CF1 albino (mouse) assessed as minimal motor impairment at 100 mg/kg, ip measured at 0.5 hr by rotorod test; assay type: toxicity, organism-based; parameters: dose 100 mg/kg, route intraperitoneal; settings: in vivo
Mus musculus [9] = assay: Anticonvulsant activity in Mus musculus CF1 albino (mouse) assessed as protection against maximal electroshock-induced seizures at 100 mg/kg, ip measured at 4 hr; assay type: functional, organism-based; parameters: dose 100 mg/kg
Mus musculus [10] = assay: Neurotoxicity in Mus musculus CF1 albino (mouse) assessed as minimal motor impairment at 100 mg/kg, ip measured at 4 hr by rotorod test; assay type: toxicity, organism-based; parameters: dose 100 mg/kg, route intraperitoneal; settings: in vivo
Mus musculus [11] = assay: Anticonvulsant activity in Mus musculus CF1 albino (mouse) assessed as protection against electrically-induced seizure at 100 mg/kg, ip measured at 4 hr by 6Hz psychomotor seizure test; assay type: functional, organism-based; parameters: dose 100 mg/kg
Mus musculus [12] = assay: Anticonvulsant activity in Mus musculus CF1 albino (mouse) assessed as protection against subcutaneous metrazol-induced seizures at 100 mg/kg, ip measured at 0.5 hr; assay type: functional, organism-based; parameters: dose 100 mg/kg
Mus musculus [13] = assay: Anticonvulsant activity in Mus musculus CF1 albino (mouse) assessed as protection against subcutaneous metrazol-induced seizures at 30 mg/kg, ip measured at 0.5 hr; assay type: functional, organism-based; parameters: dose 30 mg/kg
Mus musculus [14] = assay: Anticonvulsant activity in Mus musculus CF1 albino (mouse) assessed as protection against maximal electroshock-induced seizures at 30 mg/kg, ip measured at 0.5 hr; assay type: functional, organism-based; parameters: dose 30 mg/kg
Mus musculus [15] = assay: Anticonvulsant activity in Mus musculus CF1 albino (mouse) assessed as protection against electrically-induced seizure at 100 mg/kg, ip measured at 2 hr by 6Hz psychomotor seizure test; assay type: functional, organism-based; parameters: dose 100 mg/kg
Mus musculus [16] = assay: Anticonvulsant activity in Mus musculus CF1 albino (mouse) assessed as protection against subcutaneous metrazol-induced seizures at 300 mg/kg, ip measured at 4 hr; assay type: functional, organism-based; parameters: dose 300 mg/kg
Mus musculus [17] = assay: Anticonvulsant activity in Mus musculus CF1 albino (mouse) assessed as protection against subcutaneous metrazol-induced seizures at 300 mg/kg, ip measured at 0.5 hr; assay type: functional, organism-based; parameters: dose 300 mg/kg
Mus musculus [18] = assay: Neurotoxicity in Mus musculus CF1 albino (mouse) assessed as minimal motor impairment at 30 mg/kg, ip measured at 4 hr by rotorod test; assay type: toxicity, organism-based; parameters: dose 30 mg/kg, route intraperitoneal; settings: in vivo
Mus musculus [19] = assay: Neurotoxicity in Mus musculus CF1 albino (mouse) assessed as minimal motor impairment at 300 mg/kg, ip measured at 0.5 hr by rotorod test; assay type: toxicity, organism-based; parameters: dose 300 mg/kg, route intraperitoneal; settings: in vivo
[20] = Neurotoxicity in ip dosed Mus musculus CF1 albino (mouse) assessed as minimal motor impairment measured at 0.25 hr by rotorod test; assay type: toxicity, organism-based; settings: in vivo
Mus musculus [21] = assay: Anticonvulsant activity in ip dosed Mus musculus CF1 albino (mouse) assessed as protection against electrically-induced seizure measured at 0.25 hr by 6Hz psychomotor seizure test; assay type: functional
Mus musculus [22] = assay: Anticonvulsant activity in ip dosed Mus musculus CF1 albino (mouse) assessed as protection against subcutaneous metrazol-induced seizures measured at 0.25 hr; assay type: functional
Mus musculus [23] = assay: Neurotoxicity in Mus musculus CF1 albino (mouse) assessed as minimal motor impairment at 300 mg/kg, ip measured at 4 hr by rotorod test; assay type: toxicity, organism-based; parameters: dose 300 mg/kg, route intraperitoneal; settings: in vivo
Mus musculus [24] = assay: Anticonvulsant activity in Mus musculus CF1 albino (mouse) assessed as protection against electrically-induced seizure at 100 mg/kg, ip measured at 1 hr by 6Hz psychomotor seizure test; assay type: functional, organism-based; parameters: dose 100 mg/kg
[25] = Protective index, ratio of TD50 for neurotoxicity in ip dosed Mus musculus CF1 albino (mouse) to ED50 for protection against maximal electroshock-induced seizures in ip dosed Mus musculus CF1 albino (mouse); assay type: toxicity, organism-based; settings: in vivo, read-out: Ratio TD50/ED50
Mus musculus [26] = assay: Anticonvulsant activity in ip dosed Mus musculus CF1 albino (mouse) assessed as protection against maximal electroshock-induced seizures measured at 0.25 hr; assay type: functional
[27] = Protective index, ratio of TD50 for neurotoxicity in ip dosed Mus musculus CF1 albino (mouse) to ED50 for protection against subcutaneous metrazol-induced seizures in ip dosed Mus musculus CF1 albino (mouse); assay type: toxicity, organism-based; settings: in vivo, read-out: Ratio TD50/ED50
[28] = Protective index, ratio of TD50 for neurotoxicity in ip dosed Mus musculus CF1 albino (mouse) to ED50 for protection against electrically-induced seizure by 6Hz psychomotor seizure test in ip dosed Mus musculus CF1 albino (mouse); assay type: toxicity, organism-based; settings: in vivo, read-out: Ratio TD50/ED50
Mus musculus [29] = assay: Anticonvulsant activity in Mus musculus CF1 albino (mouse) assessed as protection against electrically-induced seizure at 100 mg/kg, ip measured at 0.5 hr by 6Hz psychomotor seizure test; assay type: functional, organism-based; parameters: dose 100 mg/kg
Mus musculus [30] = assay: Anticonvulsant activity in Mus musculus CF1 albino (mouse) assessed as protection against electrically-induced seizure at 100 mg/kg, ip measured at 0.25 hr by 6Hz psychomotor seizure test; assay type: functional, organism-based; parameters: dose 100 mg/kg

Compound: CC(C)Oc1ccc(-c2nc(-c3ccccc3)c[nH]2)cc1
- Activity (Mus musculus [1]): Active
- Activity (Mus musculus [2]): Active
- Activity (Mus musculus [3]): Active
- Activity (Mus musculus [4]): inactive
- Activity (Mus musculus [5]): Non-toxic
- Activity (Mus musculus [6]): inactive
- Activity (Mus musculus [7]): inactive
- Activity (Mus musculus [8]): Non-toxic
- Activity (Mus musculus [9]): inactive
- Activity (Mus musculus [10]): Non-toxic
- Activity (Mus musculus [11]): inactive
- Activity (Mus musculus [12]): inactive
- Activity (Mus musculus [13]): inactive
- Activity (Mus musculus [14]): Active
- Activity (Mus musculus [15]): inactive
- Activity (Mus musculus [16]): inactive
- Activity (Mus musculus [17]): inactive
- Activity (Mus musculus [18]): Non-toxic
- Activity (Mus musculus [19]): Toxic

Compound: O=C1NC(=O)C(c2ccccc2)(c2ccccc2)N1 [PHENYTOIN]
- TD50 at 0.25 h [20]: 35.6 mg/kg
- ED50 (Mus musculus [21]): 27.5 mg/kg

Compound: COc1ccc(-c2nc(-c3cccc(Cl)c3)c[nH]2)cc1
- Activity (Mus musculus [1]): Active
- Activity (Mus musculus [2]): inactive
- ED50 (Mus musculus [22]): 103 mg/kg
- Activity (Mus musculus [23]): Non-toxic
- Activity (Mus musculus [3]): Active
- Activity (Mus musculus [4]): inactive
- Activity (Mus musculus [5]): Non-toxic
- Activity (Mus musculus [24]): inactive
- Activity (Mus musculus [6]): inactive
- Activity (Mus musculus [7]): inactive
- TD50 at 0.25 h [20]: 390 mg/kg
- Activity (Mus musculus [8]): Non-toxic
- Activity (Mus musculus [10]): Non-toxic
- selectivity ratio [25]: 4.7
- Activity (Mus musculus [11]): inactive
- Activity (Mus musculus [12]): inactive
- ED50 (Mus musculus [26]): 82.1 mg/kg
- Activity (Mus musculus [13]): inactive
- Activity (Mus musculus [14]): inactive
- selectivity ratio [27]: 3.8
- Activity (Mus musculus [16]): inactive
- Activity (Mus musculus [17]): inactive
- Activity (Mus musculus [18]): Non-toxic
- Activity (Mus musculus [19]): Non-toxic

Compound: CCOc1ccc(-c2nc(-c3ccccc3)c[nH]2)cc1
- Activity (Mus musculus [1]): inactive
- Activity (Mus musculus [23]): Non-toxic
- Activity (Mus musculus [3]): Active
- Activity (Mus musculus [4]): inactive
- Activity (Mus musculus [5]): Non-toxic
- Activity (Mus musculus [24]): inactive
- Activity (Mus musculus [6]): inactive
- Activity (Mus musculus [7]): inactive
- Activity (Mus musculus [8]): Non-toxic
- Activity (Mus musculus [9]): inactive
- Activity (Mus musculus [10]): Non-toxic
- Activity (Mus musculus [11]): inactive
- Activity (Mus musculus [12]): inactive
- Activity (Mus musculus [13]): inactive
- Activity (Mus musculus [14]): inactive
- Activity (Mus musculus [15]): inactive
- Activity (Mus musculus [17]): inactive
- Activity (Mus musculus [18]): Non-toxic
- Activity (Mus musculus [19]): Non-toxic

Compound: FC(F)(F)Oc1ccc(-c2nc(-c3ccccc3)c[nH]2)cc1
- Activity (Mus musculus [1]): Active
- Activity (Mus musculus [2]): inactive
- Activity (Mus musculus [23]): Non-toxic
- Activity (Mus musculus [3]): Active
- Activity (Mus musculus [4]): inactive
- Activity (Mus musculus [5]): Non-toxic
- Activity (Mus musculus [24]): Active
- Activity (Mus musculus [6]): inactive
- Activity (Mus musculus [7]): inactive
- TD50 at 0.25 h [20]: 136 mg/kg
- Activity (Mus musculus [8]): Non-toxic
- ED50 (Mus musculus [21]): 28.2 mg/kg
- selectivity ratio [28]: 4.8
- Activity (Mus musculus [10]): Non-toxic
- Activity (Mus musculus [12]): inactive
- Activity (Mus musculus [13]): inactive
- Activity (Mus musculus [29]): Active
- Activity (Mus musculus [14]): inactive
- Activity (Mus musculus [16]): inactive
- Activity (Mus musculus [17]): Active
- Activity (Mus musculus [18]): Non-toxic
- Activity (Mus musculus [30]): Active
- Activity (Mus musculus [19]): Toxic
